These are literature values, as cited in US20030181371A1, “Compositions and methods of using collajolie” (Angiotech Pharmaceuticals, Inc., priority 2001, published 2003).

Assay in data set [1]: not given
The source holds these as a separate data set.

With `CN(C)[C@@H]1C(O)=C(C(N)=O)C(=O)[C@@]2(O)C(O)=C3C(=O)c4c(O)cccc4[C@@](C)(O)C3C[C@@H]12` (stereo in doubt) [tetracycline, 4-(dimethylamino)-1,4,4a,5,5a,6,11,12a-octahydro-3,6,10,12,12a-pentahydroxy-6-methyl-1,11-dioxo-2-naphthacenecarboxamide], the “well tolerated daily dosage” value was 1000 mg.
Take `CNC(=O)[C@H](Cc1ccccc1)NC(=O)[C@H](CC(C)C)[C@H](CSc1cccs1)C(=O)NO` [Batimistat]: the solubility entry in data set [1] is “highly insoluble”.
Turning to `CNC(=O)[C@@H](NC(=O)[C@H](CC(C)C)[C@H](O)C(=O)NO)C(C)(C)C` [Marimistat], the “established well tolerated single daily dose” value (single daily dose) is recorded as 50 mg.
Consider `C[C@H]1c2cccc(O)c2C(=O)C2=C(O)[C@]3(O)C(=O)C(C(N)=O)=C(O)[C@@H](N(C)C)[C@@H]3[C@@H](O)[C@@H]21` [doxycycline, α-6-deoxy-5-hydroxy-tetracycline], for which the “well tolerated daily dosage” value is on record as 100 mg.
As for `CN(C)c1ccc(O)c2c1C[C@H]1C[C@H]3[C@H](N(C)C)C(O)=C(C(N)=O)C(=O)[C@@]3(O)C(O)=C1C2=O` [minocycline, 7-dimethylamino-6-dimethyl-6-deoxytetracycline], the “well tolerated daily dosage” value is given as 200 mg.
